Reference: ChEMBL document CHEMBL5214923, “Contemporary mTOR inhibitor scaffolds to diseases breakdown: A patent review (2015-2021)” (Eur J Med Chem, 2022)

Tests used:
[1] = molecular target: T1, mTORC1 (Homo sapiens, UniProt P42345+Q8N122+Q9BVC4); experiment: Inhibition of mTORC1 (unknown origin) assessed as measuring phosphorylated 4EBP1 level at 1 uM relative to control; format: protein-complex assay
[2] = molecular target: T1, mTORC1; experiment: Inhibition of mTORC1 (unknown origin) assessed as measuring phosphorylated p7OS6K level at 0.2 uM relative to control; format: protein-complex assay
[3] = molecular target: PI3-kinase p110-alpha/p85-alpha (Homo sapiens, UniProt P42336); experiment: Inhibition of PI3K p110alpha/p85alpha (unknown origin) using PIP2 as substrate preincubated for 15 mins followed by substrate addition measured after 1 hr in presence of ATP by TR-FRET assay; format: protein-complex assay
PI3-kinase p110-alpha/p85-alpha, sequence (P27986 whole entry): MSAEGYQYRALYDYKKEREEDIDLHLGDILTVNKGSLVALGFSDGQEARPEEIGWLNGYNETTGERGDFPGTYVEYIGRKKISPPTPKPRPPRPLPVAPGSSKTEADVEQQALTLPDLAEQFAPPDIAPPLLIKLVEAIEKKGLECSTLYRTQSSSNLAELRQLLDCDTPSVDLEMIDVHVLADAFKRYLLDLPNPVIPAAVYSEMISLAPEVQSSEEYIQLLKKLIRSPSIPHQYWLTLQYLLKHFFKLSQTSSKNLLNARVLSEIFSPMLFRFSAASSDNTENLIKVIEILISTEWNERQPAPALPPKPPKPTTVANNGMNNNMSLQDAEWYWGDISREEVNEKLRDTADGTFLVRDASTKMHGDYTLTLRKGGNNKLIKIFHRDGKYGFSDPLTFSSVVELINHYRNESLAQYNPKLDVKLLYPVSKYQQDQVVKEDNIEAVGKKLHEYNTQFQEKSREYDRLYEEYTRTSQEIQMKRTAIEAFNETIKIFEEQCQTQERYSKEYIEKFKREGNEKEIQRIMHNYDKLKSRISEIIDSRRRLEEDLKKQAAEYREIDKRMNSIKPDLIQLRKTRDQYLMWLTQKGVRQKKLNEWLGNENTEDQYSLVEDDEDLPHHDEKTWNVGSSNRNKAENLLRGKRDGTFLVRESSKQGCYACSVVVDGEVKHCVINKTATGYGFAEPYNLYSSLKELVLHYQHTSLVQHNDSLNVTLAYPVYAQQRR
PI3-kinase p110-alpha/p85-alpha, sequence (P42336 whole entry): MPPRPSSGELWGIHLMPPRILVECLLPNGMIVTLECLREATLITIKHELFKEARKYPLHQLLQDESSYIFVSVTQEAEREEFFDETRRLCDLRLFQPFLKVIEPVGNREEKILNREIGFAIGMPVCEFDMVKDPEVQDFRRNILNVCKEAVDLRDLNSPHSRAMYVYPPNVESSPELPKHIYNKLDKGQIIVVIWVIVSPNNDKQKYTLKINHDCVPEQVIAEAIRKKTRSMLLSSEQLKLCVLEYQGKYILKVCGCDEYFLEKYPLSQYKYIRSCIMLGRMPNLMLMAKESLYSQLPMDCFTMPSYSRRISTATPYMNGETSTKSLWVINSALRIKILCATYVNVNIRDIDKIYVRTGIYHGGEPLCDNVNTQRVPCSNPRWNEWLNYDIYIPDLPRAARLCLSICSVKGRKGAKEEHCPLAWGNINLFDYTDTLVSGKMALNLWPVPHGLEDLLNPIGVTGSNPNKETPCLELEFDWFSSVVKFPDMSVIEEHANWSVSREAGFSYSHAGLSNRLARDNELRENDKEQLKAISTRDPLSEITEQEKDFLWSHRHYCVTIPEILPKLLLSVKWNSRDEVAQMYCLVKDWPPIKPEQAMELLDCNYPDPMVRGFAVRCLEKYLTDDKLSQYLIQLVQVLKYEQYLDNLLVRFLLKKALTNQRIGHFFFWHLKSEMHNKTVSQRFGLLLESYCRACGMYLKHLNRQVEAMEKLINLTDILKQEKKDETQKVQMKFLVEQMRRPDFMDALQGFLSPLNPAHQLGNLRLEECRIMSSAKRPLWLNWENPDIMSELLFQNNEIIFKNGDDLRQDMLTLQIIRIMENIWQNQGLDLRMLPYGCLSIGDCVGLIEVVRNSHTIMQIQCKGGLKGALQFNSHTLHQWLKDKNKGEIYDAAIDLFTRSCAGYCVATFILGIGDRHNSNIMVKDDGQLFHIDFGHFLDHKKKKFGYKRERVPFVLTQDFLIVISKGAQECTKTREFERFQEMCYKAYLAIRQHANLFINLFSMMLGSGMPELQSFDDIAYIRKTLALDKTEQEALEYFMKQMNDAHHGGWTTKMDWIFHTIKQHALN

[4] = system: A549; experiment: Antitumor activity against human A549 cells assessed as cell growth inhibition incubated for 72 hrs by Cell Titer-Glo assay; format: functional, cell-based; settings: A549, 72 h
[5] = Solubility of the compound in water; format: physicochemical
[6] = molecular target: Peptidyl-prolyl cis-trans isomerase FKBP1A (Homo sapiens, UniProt P62942); experiment: Binding affinity to FKBP12 (unknown origin) assessed as inhibition constant
Peptidyl-prolyl cis-trans isomerase FKBP1A, sequence (P62942 whole entry): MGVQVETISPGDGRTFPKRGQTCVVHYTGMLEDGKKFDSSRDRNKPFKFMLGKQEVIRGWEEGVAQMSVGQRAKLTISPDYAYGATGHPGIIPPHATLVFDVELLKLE

[7] = molecular target: T1, mTORC1; experiment: Inhibition of mTORC1 (unknown origin); format: protein-complex assay
[8] = molecular target: Phosphatidylinositol 4,5-bisphosphate 3-kinase catalytic subunit gamma isoform (Homo sapiens, UniProt P48736); experiment: Inhibition of human PI3Kgamma preincubated for 15 mins followed by ATP addition measured after 1 hr by TR-FRET assay
Phosphatidylinositol 4,5-bisphosphate 3-kinase catalytic subunit gamma isoform, sequence (P48736 whole entry, canonical isoform): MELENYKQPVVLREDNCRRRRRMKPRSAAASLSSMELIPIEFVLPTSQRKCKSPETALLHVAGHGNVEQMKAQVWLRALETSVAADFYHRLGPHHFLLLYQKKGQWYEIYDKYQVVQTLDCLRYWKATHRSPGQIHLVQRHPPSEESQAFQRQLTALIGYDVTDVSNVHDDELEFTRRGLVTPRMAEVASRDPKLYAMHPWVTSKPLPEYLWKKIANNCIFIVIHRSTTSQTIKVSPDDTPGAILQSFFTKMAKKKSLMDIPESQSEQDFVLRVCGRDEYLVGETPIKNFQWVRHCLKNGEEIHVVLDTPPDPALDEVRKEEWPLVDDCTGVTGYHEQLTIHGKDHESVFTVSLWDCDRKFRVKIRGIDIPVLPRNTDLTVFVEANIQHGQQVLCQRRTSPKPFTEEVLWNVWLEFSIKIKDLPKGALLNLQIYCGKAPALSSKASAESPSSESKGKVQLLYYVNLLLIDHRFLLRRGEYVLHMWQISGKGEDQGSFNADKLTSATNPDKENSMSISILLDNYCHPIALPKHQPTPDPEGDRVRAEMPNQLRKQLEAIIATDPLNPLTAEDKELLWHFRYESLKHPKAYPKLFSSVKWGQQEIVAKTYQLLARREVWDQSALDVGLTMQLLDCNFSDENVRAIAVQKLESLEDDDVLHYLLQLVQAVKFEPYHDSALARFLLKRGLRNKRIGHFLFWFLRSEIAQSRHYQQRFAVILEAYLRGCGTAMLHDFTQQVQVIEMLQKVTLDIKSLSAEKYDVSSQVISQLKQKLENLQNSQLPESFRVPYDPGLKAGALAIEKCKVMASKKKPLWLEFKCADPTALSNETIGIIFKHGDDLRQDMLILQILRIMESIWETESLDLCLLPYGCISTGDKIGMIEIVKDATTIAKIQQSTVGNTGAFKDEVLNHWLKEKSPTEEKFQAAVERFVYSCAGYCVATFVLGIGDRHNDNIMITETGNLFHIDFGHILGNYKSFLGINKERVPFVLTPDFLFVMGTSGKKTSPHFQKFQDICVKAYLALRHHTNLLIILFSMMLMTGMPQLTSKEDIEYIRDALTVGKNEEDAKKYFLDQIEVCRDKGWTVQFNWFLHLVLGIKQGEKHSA

[9] = molecular target: T2, Phosphatidylinositol 4,5-bisphosphate 3-kinase catalytic subunit delta isoform (Homo sapiens, UniProt O00329); experiment: Inhibition of human PI3Kdelta preincubated for 15 mins followed by ATP addition measured after 1 hr by TR-FRET assay
T2 sequence (O00329 whole entry): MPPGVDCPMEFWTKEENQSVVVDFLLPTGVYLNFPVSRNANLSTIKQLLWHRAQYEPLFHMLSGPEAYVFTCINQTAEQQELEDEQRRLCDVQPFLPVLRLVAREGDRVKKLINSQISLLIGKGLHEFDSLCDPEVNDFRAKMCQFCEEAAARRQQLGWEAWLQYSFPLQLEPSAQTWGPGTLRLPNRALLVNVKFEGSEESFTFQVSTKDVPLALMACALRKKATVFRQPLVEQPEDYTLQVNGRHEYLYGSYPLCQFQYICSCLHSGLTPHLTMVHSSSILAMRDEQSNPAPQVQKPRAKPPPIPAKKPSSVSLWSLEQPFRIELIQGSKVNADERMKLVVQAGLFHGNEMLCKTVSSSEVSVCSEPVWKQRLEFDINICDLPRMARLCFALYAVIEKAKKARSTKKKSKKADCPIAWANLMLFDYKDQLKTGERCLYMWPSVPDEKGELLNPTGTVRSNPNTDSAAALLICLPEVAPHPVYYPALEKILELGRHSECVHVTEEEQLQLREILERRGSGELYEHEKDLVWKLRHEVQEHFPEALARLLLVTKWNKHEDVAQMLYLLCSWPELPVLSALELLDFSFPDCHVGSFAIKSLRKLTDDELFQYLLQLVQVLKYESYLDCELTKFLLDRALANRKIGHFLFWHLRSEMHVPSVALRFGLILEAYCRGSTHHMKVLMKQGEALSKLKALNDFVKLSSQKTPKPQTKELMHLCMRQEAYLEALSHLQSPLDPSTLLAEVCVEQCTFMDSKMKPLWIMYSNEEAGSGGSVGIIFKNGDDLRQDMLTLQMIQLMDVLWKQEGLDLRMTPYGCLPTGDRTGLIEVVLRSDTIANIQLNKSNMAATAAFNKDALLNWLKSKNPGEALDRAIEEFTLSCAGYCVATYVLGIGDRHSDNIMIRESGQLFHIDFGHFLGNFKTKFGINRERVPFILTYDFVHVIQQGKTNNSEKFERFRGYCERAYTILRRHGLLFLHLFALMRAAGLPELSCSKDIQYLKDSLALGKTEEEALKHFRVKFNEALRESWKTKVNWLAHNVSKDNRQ

[10] = molecular target: T3, mTORC2 (Homo sapiens, UniProt P42345+Q6R327+Q9BPZ7+Q9BVC4); experiment: Inhibition of mTORC2 in human PC-3 cells assessed as measuring phosphorylated Akt level incubated for 24 hrs by AlphaLISA assay; format: cell-based
[11] = molecular target: T1, mTORC1; experiment: Inhibition of mTORC1 in human PC-3 cells assessed as measuring phosphorylated S6K level incubated for 24 hrs by AlphaLISA assay; format: cell-based
[12] = molecular target: mTORC2 (Homo sapiens) (UniProt P42345+Q6R327+Q9BVC4+Q9BPZ7); experiment: Inhibition of mTORC2 (unknown origin) assessed as measuring phosphorylated AKT at 0.5 uM relative to control; format: protein-complex assay
[13] = molecular target: Serine/threonine-protein kinase mTOR (Homo sapiens, UniProt P42345); experiment: Inhibition of human mTOR assessed as measuring phosphorylated p70S6K level by TR-FRET assay
[14] = molecular target: T1, mTORC1; experiment: Inhibition of mTORC1 in human MDA-MB-468 cells assessed as measuring phosphorylated 4EBP1 incubated for 2 to 4 hrs by AlphaLISA assay; format: cell-based
[15] = molecular target: T1, mTORC1; experiment: Inhibition of mTORC1 in human MDA-MB-468 cells assessed as measuring phosphorylated P70S6K incubated for 2 to 4 hrs by AlphaLISA assay; format: cell-based
[16] = molecular target: T3, mTORC2; experiment: Inhibition of mTORC2 in human MDA-MB-468 cells assessed as measuring phosphorylated AKT incubated for 2 to 4 hrs by AlphaLISA assay; format: cell-based

CNC(=O)c1cccc(-c2ccc3c(N4CCOC[C@@H]4C)nc(N4CCOc5ccccc54)nc3n2)c1
inhibition [1]: 61%
inhibition [2]: 87.7%

CN(C)C(=O)c1ccc(Oc2nc(-c3cnc4[nH]ccc4c3)nc(N3CCOCC3)n2)c(F)c1
IC50 [3]: < 1000 nM

CO[C@@H]1C[C@@H]2CC[C@@H](C)[C@@](O)(O2)C(=O)C(=O)N2CCCC[C@H]2C(=O)O[C@H]([C@H](C)C[C@@H]2CC[C@@H](O)[C@H](OC)C2)CC(=O)[C@H](C)/C=C(\C)[C@@H](OC(=O)C[n+]2csc(C)c2C)[C@@H](OC)C(=O)[C@H](C)C[C@H](C)/C=C/C=C/C=C/1C.[Br-]
IC50 [4]: 3040 nM
solubility [5]: 10000 µg/mL

CO[C@@H]1C[C@@H]2CC[C@@H](C)[C@@](O)(O2)C(=O)C(=O)N2CCCC[C@H]2C(=O)OC([C@H](C)C[C@H]2CC[C@H](O)CC2)C/C=C(\C)[C@@H](O)CC(=O)[C@H](C)C[C@H](C)/C=C/C=C/C=C/1C (stereo partly specified)
Ki [6]: 7.9 nM

CC(C)n1nc(-c2cc3cccc(O)c3[nH]2)c2c(N)ncnc21
IC50 [7]: < 5 nM
IC50 [8]: 100 nM
IC50 [9]: 100 nM

CNC(=O)c1cccc(-c2ccc3c(N4CCOC[C@@H]4C)nc(N4CCO[C@@H]5CCCC[C@@H]54)nc3n2)c1
inhibition [1]: 77.8%
inhibition [2]: 109%

CO[C@@H]1C[C@H](C[C@@H](C)[C@@H]2CC(=O)[C@H](C)/C=C(\C)[C@@H](O)[C@@H](OC)C(=O)[C@H](C)C[C@H](C)/C=C/C=C/C=C(\C)C(OCCO)C[C@@H]3CC[C@@H](C)[C@@](O)(O3)C(=O)C(=O)N3CCCC[C@H]3C(=O)O2)CC[C@H]1OCCCN1CCOC[C@@H]1C (stereo partly specified)
IC50 [10]: > 10000 nM
IC50 [11]: < 0.316 nM

CO[C@@H]1C[C@H](C[C@@H](C)[C@@H]2CC(=O)[C@H](C)/C=C(\C)[C@@H](O)[C@@H](OC)C(=O)[C@H](C)C[C@H](C)/C=C/C=C/C=C(\C)C(OCCO)C[C@@H]3CC[C@@H](C)[C@@](O)(O3)C(=O)C(=O)N3CCCC[C@H]3C(=O)O2)CC[C@H]1OCCCN1CCOC[C@H]1C (stereo partly specified)
IC50 [10]: > 10000 nM
IC50 [11]: < 0.316 nM

CN(C)C(=O)c1ccc(Oc2nc(-c3cnc(N)cc3C(F)(F)F)nc(N3CCOCC3)n2)c(F)c1
IC50 [3]: < 1000 nM

CO[C@@H]1C[C@H](C[C@@H](C)[C@@H]2CC(=O)[C@H](C)/C=C(\C)[C@@H](O)[C@@H](OC)C(=O)[C@H](C)C[C@H](C)/C=C/C=C/C=C(\C)C(OCCO)C[C@@H]3CC[C@@H](C)[C@@](O)(O3)C(=O)C(=O)N3CCCC[C@H]3C(=O)O2)CC[C@H]1OCCCN1CCOC(C)(C)C1 (stereo partly specified)
IC50 [10]: > 10000 nM
IC50 [11]: < 0.316 nM

CO[C@@H]1C[C@@H]2CC[C@@H](C)[C@@](O)(O2)C(=O)C(=O)N2CCCC[C@H]2C(=O)OC([C@H](C)C[C@@H]2CC[C@@H](O)[C@H](O)C2)C/C=C(\C)[C@@H](O)CC(=O)[C@H](C)C[C@H](C)/C=C/C=C/C=C/1C (stereo partly specified)
Ki [6]: 4.2 nM

CNC(=O)c1cccc(-c2ccc3c(N4CCOC[C@@H]4C)nc(N4CCOC[C@@H]4C)nc3n2)c1
inhibition [12]: 73.9%
inhibition [1]: 83.8%
inhibition [2]: 87.7%

COc1ccc(-c2ccc3c(N4CCOC[C@@H]4C)cc(N4CCOC[C@@H]4C)nc3n2)cc1
IC50 [13]: < 100 nM

Cc1cc(Oc2nc(-c3ccc(N)nc3)nc(N3CCOCC3)n2)ccc1C(=O)N(C)C
IC50 [3]: < 1000 nM

CO[C@@H]1C[C@@H]2CC[C@@H](C)[C@@](O)(O2)C(=O)C(=O)N2CCCC[C@H]2C(=O)OC([C@H](C)C[C@@H]2CC[C@@H](O)[C@H](OC)C2)CC(O)CC(=O)[C@H](C)/C=C(\C)[C@@H](O)CC(=O)[C@H](C)C[C@H](C)/C=C/C=C/C=C/1C (stereo partly specified)
Ki [6]: 6.5 nM

CO[C@@H]1C[C@@H]2CC[C@@H](C)[C@@](O)(O2)C(=O)C(=O)N2CCCC[C@H]2C(=O)OC([C@H](C)C[C@@H]2CC[C@@H](O)[C@H](OC)C2)C/C=C(\C)[C@@H](O)CC(=O)[C@H](C)C[C@H](C)/C=C/C=C/C=C/1C (stereo partly specified)
Ki [6]: 5.9 nM

C[C@H]1COCCN1c1cc2nc(-c3cccc(CO)c3)ccc2c(N2CCOC[C@@H]2C)n1
IC50 [13]: < 100 nM

C[C@H]1COCCN1c1nc(N2CCO[C@@H]3CCCC[C@@H]32)nc2nc(-c3cccc(C4=NCC(C)(C)N4)c3)ccc12
inhibition [12]: 56.2%
inhibition [1]: 83.2%
inhibition [2]: 77.7%

CNC(=O)c1cccc(-c2ccc3c(N4CCOC[C@@H]4C)nc(N4CCO[C@@H]5CCC[C@@H]54)nc3n2)c1
inhibition [12]: 89%
inhibition [1]: 62%
inhibition [2]: 89.9%

COc1ccc(-c2ccc3c(N4CCOC[C@@H]4C)nc(N4CCOC[C@@H]4C)cc3n2)cc1CO
IC50 [13]: < 100 nM

CC(C)n1nc(-c2cc3cc(O)cc(F)c3[nH]2)c2c(N)ncnc21
IC50 [7]: < 5 nM
IC50 [8]: 100 nM
IC50 [9]: 50 nM

C\C1=C/C=C/C=C/[C@@H](C)C[C@@H](C)C(=O)C[C@H](O)/C(C)=C/CC([C@H](C)C[C@H]2CC[C@H](O)CC2)OC(=O)[C@@H]2CCCCN2C(=O)C(=O)[C@]2(O)O[C@@H](CC[C@H]2C)C[C@H]1O (stereo partly specified)
Ki [6]: 7.7 nM

CO[C@@H]1C[C@H](C[C@@H](C)[C@@H]2CC(=O)[C@H](C)/C=C(\C)[C@@H](O)[C@@H](OC)C(=O)[C@H](C)C[C@H](C)/C=C/C=C/C=C(\C)C(OCCO)C[C@@H]3CC[C@@H](C)[C@@](O)(O3)C(=O)C(=O)N3CCCC[C@H]3C(=O)O2)CC[C@H]1OCCCN1C[C@@H](C)O[C@@H](C)C1 (stereo partly specified)
IC50 [10]: > 10000 nM
IC50 [11]: < 0.316 nM

C[C@H]1COCCN1c1cc(N2CCOC[C@@H]2C)c2ccc(-c3ccc(CNCCO)cc3)nc2n1
IC50 [13]: < 100 nM

C[C@H]1COCCN1c1nc(Oc2ccc(C(=O)N(C)C)cc2)nc(-c2cnc(N)s2)n1
IC50 [3]: < 1000 nM

COc1ccc(-c2ccc3c(N4CCOC[C@@H]4C)nc(N4CCOC[C@@H]4C)cc3n2)cc1
IC50 [13]: < 100 nM

C[C@H]1COC[C@H](C)N1c1nc(Oc2ccc(C(=O)N(C)C)cc2)nc(-c2cnc(N)s2)n1
IC50 [3]: < 1000 nM

CO[C@H]1C[C@@H]2CC[C@@H](C)[C@@](O)(O2)C(=O)C(=O)N2CCCC[C@H]2C(=O)O[C@H]([C@H](C)C[C@@H]2CC[C@@H](O)[C@H](OC)C2)C[C@@H](O)[C@H](C)/C=C(\C)[C@@H](O)[C@@H](OC)/C(=N\OCc2cn(-c3cnc(N4CCN(c5ncc(C(=O)NCCOCCC(=O)NCCCCn6nc(-c7ccc8oc(N)nc8c7)c7c(N)ncnc76)cn5)CC4)nc3)nn2)[C@H](C)C[C@H](C)C\C=C/C=C/C=C/1C
IC50 [14]: ≤ 3.16 nM
IC50 [15]: ≤ 1 nM
IC50 [16]: > 31.6 nM

CNC(=O)c1cc(-c2ccc3c(N4CCOC[C@@H]4C)nc(N4CCO[C@@H]5CCC[C@@H]54)nc3n2)ccc1F
inhibition [1]: 60.8%
inhibition [2]: 77.5%

CO[C@@H]1C[C@H](C[C@@H](C)[C@@H]2CC(=O)[C@H](C)/C=C(\C)[C@@H](O)[C@@H](OC)C(=O)[C@H](C)C[C@H](C)/C=C/C=C/C=C(\C)C(OCCO)C[C@@H]3CC[C@@H](C)[C@@](O)(O3)C(=O)C(=O)N3CCCC[C@H]3C(=O)O2)CC[C@H]1OC(=O)NCCc1ccccc1 (stereo partly specified)
IC50 [10]: > 10000 nM
IC50 [11]: < 0.316 nM
